Measurements as given in patent publication US10875874B2, “Ginkgolide B derivative and preparation method and use thereof” (Chengdu Baiyu Ginkgolide Pharmaceuticals Co., Ltd., priority 2015, dated 2020).
In brackets after ≈: the same amount, converted by molar mass. Marks after values point to notes of the source that are not given here. Each block holds one compound with its values, some of them ahead of it.

Legend:
[1] = Weekly body weight of SHR rats; type: in vivo, rat
In short: (§1)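 Male and female SHR rats (200-250 g, 8/group) dosed intragastrically once daily for 8 weeks with test compounds at 60 or 120 mg/kg/d or captopril 27 mg/kg; Wistar and SHR controls received distilled water. Body weight and food intake observed during treatment.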

[2] = Weekly food intake of SHR rats; type: in vivo, rat
In short: as §1

[3] = tested on: spontaneously hypertensive rats (SHR); assay: Caudal artery systolic pressure of spontaneously hypertensive rats, single administration; type: in vivo, rat; settings: x ± s, n = 8
In short: (§2)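 SHR rats of both sexes (200–250 g, 8/group) dosed intragastrically with 60 or 120 mg/kg/d, or captopril 27 mg/kg, once daily for 8 weeks; Wistar rats and vehicle SHR served as controls. Tail-cuff systolic pressure taken as the mean of 3 readings, measured before dosing and 30–120 min after the first dose, or 30 min post-dose on days 1–56 for chronic treatment.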

Water solubility test = settings: purified water, thermodynamic from solid
Method: Measuring method: samples are ground to obtain fine powder, target compounds are quantitatively weighed, the weighed compounds are added into purified water, and the solubility of the compounds is investigated by ultrasonics.

[4] = tested on: spontaneously hypertensive rats (SHR); assay: Caudal artery systolic pressure of spontaneously hypertensive rats, 8 weeks of continuous medication; type: in vivo, rat; settings: x ± s, n = 8
In short: as §2

[5] = 60 mg/kg/d intragastric, week 0
[6] = 60 mg/kg/d intragastric, week 1
[7] = 60 mg/kg/d intragastric, week 2
[8] = 60 mg/kg/d intragastric, week 3
[9] = 60 mg/kg/d intragastric, week 4
[10] = 60 mg/kg/d intragastric, week 5
[11] = 60 mg/kg/d intragastric, week 6
[12] = 60 mg/kg/d intragastric, week 7
[13] = 60 mg/kg/d intragastric, week 8
[14] = 120 mg/kg/d intragastric, week 0
[15] = 120 mg/kg/d intragastric, week 1
[16] = 120 mg/kg/d intragastric, week 2
[17] = 120 mg/kg/d intragastric, week 3
[18] = 120 mg/kg/d intragastric, week 4
[19] = 120 mg/kg/d intragastric, week 5
[20] = 120 mg/kg/d intragastric, week 6
[21] = 120 mg/kg/d intragastric, week 7
[22] = 120 mg/kg/d intragastric, week 8
[23] = 60 mg/kg intragastric single administration, 30 min
[24] = 60 mg/kg intragastric single administration, 60 min
[25] = 60 mg/kg intragastric single administration, 90 min
[26] = 60 mg/kg intragastric single administration, 120 min
[27] = 60 mg/kg intragastric single administration, before administration
[28] = 120 mg/kg intragastric single administration, 30 min
[29] = 120 mg/kg intragastric single administration, 60 min
[30] = 120 mg/kg intragastric single administration, 90 min
[31] = 120 mg/kg intragastric single administration, 120 min
[32] = 120 mg/kg intragastric single administration, before administration
[33] = 60 mg/kg/d intragastric continuous, 1 d, 30 min after administration
[34] = 60 mg/kg/d intragastric continuous, 7 d, 30 min after administration
[35] = 60 mg/kg/d intragastric continuous, 13 d, 30 min after administration
[36] = 60 mg/kg/d intragastric continuous, 19 d, 30 min after administration
[37] = 60 mg/kg/d intragastric continuous, 25 d, 30 min after administration
[38] = 60 mg/kg/d intragastric continuous, 35 d, 30 min after administration
[39] = 60 mg/kg/d intragastric continuous, 49 d, 30 min after administration
[40] = 60 mg/kg/d intragastric continuous, 56 d, 30 min after administration
[41] = 60 mg/kg/d intragastric continuous, before administration
[42] = 120 mg/kg/d intragastric continuous, 1 d, 30 min after administration
[43] = 120 mg/kg/d intragastric continuous, 7 d, 30 min after administration
[44] = 120 mg/kg/d intragastric continuous, 13 d, 30 min after administration
[45] = 120 mg/kg/d intragastric continuous, 19 d, 30 min after administration
[46] = 120 mg/kg/d intragastric continuous, 25 d, 30 min after administration
[47] = 120 mg/kg/d intragastric continuous, 35 d, 30 min after administration
[48] = 120 mg/kg/d intragastric continuous, 49 d, 30 min after administration
[49] = 120 mg/kg/d intragastric continuous, 56 d, 30 min after administration
[50] = 120 mg/kg/d intragastric continuous, before administration

solubility (Water solubility test): 300 µg/mL (≈ 524 µM)
Compound: Cc1nc(C)c(C(=O)O[C@H]2C(=O)O[C@H]3O[C@]45C(=O)OC6C[C@@H](C(C)(C)C)C32[C@@]64[C@@H](O)[C@@H]2OC(=O)[C@@H](C)[C@@]25O)nc1C (stereo partly shown) [BZ]
Body weight [1, 5]: 231.0 g | Body weight [1, 6]: 235.7 g | Body weight [1, 7]: 242.5 g | Body weight [1, 8]: 251.6 g | Body weight [1, 9]: 259.4^▴ g | Body weight [1, 10]: 263.6^▴ g | Body weight [1, 11]: 269.1^▴▴ g | Body weight [1, 12]: 276.8^▴▴ g | Body weight [1, 13]: 288.0^▴▴ g | Body weight [1, 14]: 268.9 g | Body weight [1, 15]: 249.4^▴▴ g | Body weight [1, 16]: 256.7^▴▴ g | Body weight [1, 17]: 262.4^▴▴ g | Body weight [1, 18]: 268.9^▴▴ g | Body weight [1, 19]: 280.7^▴▴ g | Body weight [1, 20]: 291.3^▴▴ g | Body weight [1, 21]: 305.4^▴▴ g | Body weight [1, 22]: 320.9^▴▴ g | Average dairy food intake [2, 5]: 18.1 g/day | Average dairy food intake [2, 6]: 19.5^▴ g/d | Average dairy food intake [2, 7]: 19.7^▴ g/d | Average dairy food intake [2, 8]: 20.4^▴▴ g/d | Average dairy food intake [2, 9]: 20.9^▴▴ g/d | Average dairy food intake [2, 10]: 21.7^▴▴ g/d | Average dairy food intake [2, 11]: 22.9^▴▴ g/d | Average dairy food intake [2, 12]: 24.0^▴▴ g/d | Average dairy food intake [2, 13]: 24.9^▴▴ g/d | Average dairy food intake [2, 14]: 18.0 g/day | Average dairy food intake [2, 15]: 19.3^▴ g/d | Average dairy food intake [2, 16]: 20.5^▴▴ g/d | Average dairy food intake [2, 17]: 22.0^▴▴ g/d | Average dairy food intake [2, 18]: 22.6^▴▴ g/d | Average dairy food intake [2, 19]: 23.6^▴▴ g/d | Average dairy food intake [2, 20]: 24.1^▴▴ g/d | Average dairy food intake [2, 21]: 24.9^▴▴ g/d | Average dairy food intake [2, 22]: 27.0^▴▴ g/d | Systolic pressure [3, 23]: 152.65 ± 10.48 mmHg | Systolic pressure [3, 24]: 153.05 ± 16.39 mmHg | Systolic pressure [3, 25]: 151.14 ± 10.87 mmHg | Systolic pressure [3, 26]: 156.47 ± 12.47 mmHg | Systolic pressure [3, 27]: 163.58 ± 10.36 mmHg | Systolic pressure [3, 28]: 150.00 ± 9.15 mmHg | Systolic pressure [3, 29]: 152.95 ± 9.26 mmHg | Systolic pressure [3, 30]: 156.28 ± 13.95 mmHg | Systolic pressure [3, 31]: 169.36 ± 10.63 mmHg | Systolic pressure [3, 32]: 166.24 ± 12.14 mmHg | Systolic pressure [4, 33]: 158.77 ± 11.06 mmHg | Systolic pressure [4, 34]: 153.41 ± 14.08 mmHg | Systolic pressure [4, 35]: 151.38 ± 9.47 mmHg | Systolic pressure [4, 36]: 155.74 ± 10.62 mmHg | Systolic pressure [4, 37]: 154.94 ± 9.64 mmHg | Systolic pressure [4, 38]: 150.95 ± 5.04 mmHg | Systolic pressure [4, 39]: 155.06 ± 6.37 mmHg | Systolic pressure [4, 40]: 153.95 ± 14.01 mmHg | Systolic pressure [4, 41]: 163.58 ± 10.36 mmHg | Systolic pressure [4, 42]: 154.69 ± 9.85 mmHg | Systolic pressure [4, 43]: 153.74 ± 10.24 mmHg | Systolic pressure [4, 44]: 150.39 ± 10.39 mmHg | Systolic pressure [4, 45]: 149.72 ± 9.83 mmHg | Systolic pressure [4, 46]: 149.02 ± 8.26 mmHg | Systolic pressure [4, 47]: 151.72 ± 10.47 mmHg | Systolic pressure [4, 48]: 153.42 ± 12.04 mmHg | Systolic pressure [4, 49]: 148.62 ± 9.73 mmHg | Systolic pressure [4, 50]: 166.24 ± 12.14 mmHg

solubility (Water solubility test): 250 µg/mL (≈ 381 µM)
Compound: CCCCC(OC(C)=O)c1ccccc1C(=O)O[C@H]1C(=O)O[C@H]2O[C@]34C(=O)OC5C[C@@H](C(C)(C)C)C21[C@@]53[C@@H](O)[C@@H]1OC(=O)[C@@H](C)[C@@]14O (stereo partly shown) [BD]
Body weight [1, 5]: 229.2 g | Body weight [1, 6]: 234.5 g | Body weight [1, 7]: 247.1^▴▴ g | Body weight [1, 8]: 252.2 g | Body weight [1, 9]: 257.2 g | Body weight [1, 10]: 262.4 g | Body weight [1, 11]: 270.4^▴ g | Body weight [1, 12]: 280.2^▴▴ g | Body weight [1, 13]: 290.5^▴▴ g | Body weight [1, 14]: 230.9 g | Body weight [1, 15]: 252.0^▴▴ g | Body weight [1, 16]: 257.5^▴▴ g | Body weight [1, 17]: 263.9^▴▴ g | Body weight [1, 18]: 270.8^▴▴ g | Body weight [1, 19]: 281.2^▴▴ g | Body weight [1, 20]: 291.0^▴▴ g | Body weight [1, 21]: 304.7^▴▴ g | Body weight [1, 22]: 321.7^▴▴ g | Average dairy food intake [2, 5]: 18.7 g/day | Average dairy food intake [2, 6]: 19.0^▴ g/d | Average dairy food intake [2, 7]: 19.4^▴ g/d | Average dairy food intake [2, 8]: 19.8^▴ g/d | Average dairy food intake [2, 9]: 20.0^▴▴ g/d | Average dairy food intake [2, 10]: 21.3^▴▴ g/d | Average dairy food intake [2, 11]: 22.6^▴▴ g/d | Average dairy food intake [2, 12]: 24.3^▴▴ g/d | Average dairy food intake [2, 13]: 25.0^▴▴ g/d | Average dairy food intake [2, 14]: 18.3 g/day | Average dairy food intake [2, 15]: 20.1^▴ g/d | Average dairy food intake [2, 16]: 20.6^▴▴ g/d | Average dairy food intake [2, 17]: 21.0^▴▴ g/d | Average dairy food intake [2, 18]: 21.5^▴▴ g/d | Average dairy food intake [2, 19]: 22.8^▴▴ g/d | Average dairy food intake [2, 20]: 23.9^▴▴ g/d | Average dairy food intake [2, 21]: 25.4^▴▴ g/d | Average dairy food intake [2, 22]: 26.9^▴▴ g/d | Systolic pressure [3, 23]: 157.74 ± 9.28 mmHg | Systolic pressure [3, 24]: 152.67 ± 13.52 mmHg | Systolic pressure [3, 25]: 151.60 ± 12.04 mmHg | Systolic pressure [3, 26]: 155.68 ± 10.15 mmHg | Systolic pressure [3, 27]: 163.64 ± 14.02 mmHg | Systolic pressure [3, 28]: 148.47 ± 10.87 mmHg | Systolic pressure [3, 29]: 151.75 ± 10.68 mmHg | Systolic pressure [3, 30]: 157.25 ± 14.38 mmHg | Systolic pressure [3, 31]: 160.49 ± 14.76 mmHg | Systolic pressure [3, 32]: 164.57 ± 13.25 mmHg | Systolic pressure [4, 33]: 156.20 ± 13.41 mmHg | Systolic pressure [4, 34]: 152.95 ± 11.03 mmHg | Systolic pressure [4, 35]: 155.74 ± 15.25 mmHg | Systolic pressure [4, 36]: 153.01 ± 14.04 mmHg | Systolic pressure [4, 37]: 152.30 ± 10.45 mmHg | Systolic pressure [4, 38]: 157.03 ± 14.08 mmHg | Systolic pressure [4, 39]: 153.96 ± 14.74 mmHg | Systolic pressure [4, 40]: 154.57 ± 12.48 mmHg | Systolic pressure [4, 41]: 163.64 ± 14.02 mmHg | Systolic pressure [4, 42]: 150.49 ± 15.34 mmHg | Systolic pressure [4, 43]: 152.64 ± 11.45 mmHg | Systolic pressure [4, 44]: 147.33 ± 13.42 mmHg | Systolic pressure [4, 45]: 145.49 ± 12.98 mmHg | Systolic pressure [4, 46]: 147.66 ± 14.02 mmHg | Systolic pressure [4, 47]: 145.61 ± 9.47 mmHg | Systolic pressure [4, 48]: 148.62 ± 12.04 mmHg | Systolic pressure [4, 49]: 142.15 ± 13.14 mmHg | Systolic pressure [4, 50]: 164.57 ± 13.25 mmHg
